Laboratory results reported in ChEMBL document CHEMBL3885881, “DrugMatrix”.

Species on record: Rattus norvegicus
Assay: DrugMatrix - Regimen: Daily Repeat
Assay type: toxicity, organism-based, Sprague-Dawley
Design: regimen Daily Repeat, gender Male, age 6-8 weeks
Settings: in vivo, po, 17 mg/kg, route oral GAVAGE, dose level High, vehicle .5 % CMC; for ABSOLUTE BASOPHIL / ABSOLUTE EOSINOPHIL / ABSOLUTE LYMPHOCYTE / ABSOLUTE MONOCYTE / ABSOLUTE SEGMENTED NEUTROPHIL / BASOPHIL / EOSINOPHIL / ERYTHROCYTE COUNT / HEMATOCRIT / HEMOGLOBIN / LEUKOCYTE COUNT / LYMPHOCYTE / MEAN CORPUSCULAR HEMOGLOBIN / MEAN CORPUSCULAR HEMOGLOBIN CONCENTRATION / MEAN CORPUSCULAR VOLUME / MONOCYTE / NEUTROPHIL / NUCLEATED RED BLOOD CELLS / PLATELET COUNT: tissue Blood; for ALANINE AMINOTRANSFERASE / ALBUMIN / ALKALINE PHOSPHATASE / ASPARTATE AMINOTRANSFERASE / BLOOD UREA NITROGEN / CARBON DIOXIDE / CHLORIDE / CHOLESTEROL / CREATININE / GLUCOSE / LACTATE DEHYDROGENASE / LIPASE / PHOSPHORUS / POTASSIUM / SODIUM / TOTAL BILIRUBIN / TOTAL PROTEIN / URIC ACID: tissue Plasma

`COc1ccc(C(=O)Nc2c(Cl)cncc2Cl)cc1OC1CCCC1` was tested, and the “ABSOLUTE BASOPHIL” value (120 h, time 5 day) was 0 CELLS/uL, the “ABSOLUTE EOSINOPHIL” value (120 h, time 5 day) was 84.67 CELLS/uL and the “ABSOLUTE LYMPHOCYTE” value (120 h, time 5 day) was 11281 CELLS/uL. For the same compound, the “ABSOLUTE MONOCYTE” value (120 h, time 5 day) was 472.33 CELLS/uL, the “ABSOLUTE SEGMENTED NEUTROPHIL” value (120 h, time 5 day) was 1195.33 CELLS/uL and the BASOPHIL (120 h, time 5 day) was 0%. For the same compound, the EOSINOPHIL (120 h, time 5 day) was 0.67%, the “ERYTHROCYTE COUNT” value (120 h, time 5 day) was 6 x10E6/uL and the HEMATOCRIT (120 h, time 5 day) was 36.73%. The HEMOGLOBIN (120 h, time 5 day) was 13.33 G/DL, the “LEUKOCYTE COUNT” value (120 h, time 5 day) was 13.03 x10E3/uL and the LYMPHOCYTE (120 h, time 5 day) was 86.33%. The “MEAN CORPUSCULAR HEMOGLOBIN” value (120 h, time 5 day) was 22.23 pg, the “MEAN CORPUSCULAR HEMOGLOBIN CONCENTRATION” value (120 h, time 5 day) was 36.3 G/DL and the “MEAN CORPUSCULAR VOLUME” value (120 h, time 5 day) was 61.23 fL. For the same compound, the MONOCYTE (120 h, time 5 day) was 3.67%, the NEUTROPHIL (120 h, time 5 day) was 9.33% and the “NUCLEATED RED BLOOD CELLS” value (120 h, time 5 day) was 0 /100WBC. The “PLATELET COUNT” value (120 h, time 5 day) was 1070.67 x10E3/uL, the “ALANINE AMINOTRANSFERASE” value (120 h, time 5 day) was 64 u/L and the ALBUMIN (120 h, time 5 day) was 4.1 G/DL. For the same compound, the “ALKALINE PHOSPHATASE” value (120 h, time 5 day) was 400 u/L, the “ASPARTATE AMINOTRANSFERASE” value (120 h, time 5 day) was 136.33 u/L and the “BLOOD UREA NITROGEN” value (120 h, time 5 day) was 13 mg/dL. The “CARBON DIOXIDE” value (120 h, time 5 day) was 34.33 mmol/L, the CHLORIDE (120 h, time 5 day) was 101 MEQ/L and the CHOLESTEROL (120 h, time 5 day) was 65.33 mg/dL. For the same compound, the CREATININE (120 h, time 5 day) was 0.19 mg/dL, the GLUCOSE (120 h, time 5 day) was 166.33 mg/dL and the “LACTATE DEHYDROGENASE” value (120 h, time 5 day) was 276.33 u/L. The LIPASE (120 h, time 5 day) was 8.33 u/L, the PHOSPHORUS (120 h, time 5 day) was 11.3 mg/dL and the POTASSIUM (120 h, time 5 day) was 6.12 MEQ/L. For the same compound, the SODIUM (120 h, time 5 day) was 149.43 MEQ/L, the “TOTAL BILIRUBIN” value (120 h, time 5 day) was 0.2 mg/dL and the “TOTAL PROTEIN” value (120 h, time 5 day) was 6.63 G/DL. The “URIC ACID” value (120 h, time 5 day) was 1.5 mg/dL, the “ABSOLUTE BASOPHIL” value ([…], time 14 day) was 0 CELLS/uL and the “ABSOLUTE EOSINOPHIL” value ([…], time 14 day) was 107.5 CELLS/uL. For the same compound, the “ABSOLUTE LYMPHOCYTE” value ([…], time 14 day) was 9595.25 CELLS/uL, the “ABSOLUTE MONOCYTE” value ([…], time 14 day) was 1138.5 CELLS/uL and the “ABSOLUTE SEGMENTED NEUTROPHIL” value ([…], time 14 day) was 8133.75 CELLS/uL. For the same compound, the BASOPHIL ([…], time 14 day) was 0%, the EOSINOPHIL ([…], time 14 day) was 0.5% and the “ERYTHROCYTE COUNT” value ([…], time 14 day) was 6.06 x10E6/uL. The HEMATOCRIT ([…], time 14 day) was 34.55%, the HEMOGLOBIN ([…], time 14 day) was 12.95 G/DL and the “LEUKOCYTE COUNT” value ([…], time 14 day) was 18.98 x10E3/uL. The LYMPHOCYTE ([…], time 14 day) was 60.25%, the “MEAN CORPUSCULAR HEMOGLOBIN” value ([…], time 14 day) was 21.4 pg and the “MEAN CORPUSCULAR HEMOGLOBIN CONCENTRATION” value ([…], time 14 day) was 37.5 G/DL. For the same compound, the “MEAN CORPUSCULAR VOLUME” value ([…], time 14 day) was 57.05 fL, the MONOCYTE ([…], time 14 day) was 5% and the NEUTROPHIL ([…], time 14 day) was 34.25%. For the same compound, the “NUCLEATED RED BLOOD CELLS” value ([…], time 14 day) was 0 /100WBC, the “PLATELET COUNT” value ([…], time 14 day) was 1068 x10E3/uL and the “ALANINE AMINOTRANSFERASE” value ([…], time 14 day) was 48.25 u/L. The ALBUMIN ([…], time 14 day) was 3.22 G/DL, the “ALKALINE PHOSPHATASE” value ([…], time 14 day) was 273 u/L and the “ASPARTATE AMINOTRANSFERASE” value ([…], time 14 day) was 67 u/L. For the same compound, the “BLOOD UREA NITROGEN” value ([…], time 14 day) was 14.25 mg/dL, the “CARBON DIOXIDE” value ([…], time 14 day) was 33.75 mmol/L and the CHLORIDE ([…], time 14 day) was 100.5 MEQ/L. For the same compound, the CHOLESTEROL ([…], time 14 day) was 56 mg/dL, the CREATININE ([…], time 14 day) was 0.24 mg/dL and the GLUCOSE ([…], time 14 day) was 131 mg/dL. The “LACTATE DEHYDROGENASE” value ([…], time 14 day) was 107.75 u/L, the LIPASE ([…], time 14 day) was 9 u/L and the PHOSPHORUS ([…], time 14 day) was 8.28 mg/dL. For the same compound, the POTASSIUM ([…], time 14 day) was 5.54 MEQ/L, the SODIUM ([…], time 14 day) was 148.15 MEQ/L and the “TOTAL BILIRUBIN” value ([…], time 14 day) was 0.18 mg/dL. The “TOTAL PROTEIN” value ([…], time 14 day) was 6.12 G/DL and the “URIC ACID” value ([…], time 14 day) was 0.62 mg/dL.
